Source: the NIST ThermoML archive (doi:10.1016/j.jct.2012.10.008)
Numbers after ± are expanded uncertainties.

Assays:
[1] = Liquid; for viscosity: Falling or rolling sphere viscometry; for mass density: Vibrating tube method
[2] = refractive index (Na D-line) (dimensionless); conditions: 298.15 K; 101.33 kPa; Liquid; Standard Abbe refractometry
[3] = xn = mol fraction of the nth substance listed; conditions: 101 kPa, Liquid, x2 = 0; for viscosity: Falling or rolling sphere viscometry; for mass density: Vibrating tube method

Row | Structure (SMILES) | viscosity ([1]; 293.15 K, 101.33 kPa) [mPa·s] | mass density ([1]; 293.15 K, 101.33 kPa) [kg/m3] | viscosity ([1]; 298.15 K, 101.33 kPa) [mPa·s] | mass density ([1]; 298.15 K, 101.33 kPa) [kg/m3] | viscosity ([1]; 303.15 K, 101.33 kPa) [mPa·s] | mass density ([1]; 303.15 K, 101.33 kPa) [kg/m3] | viscosity ([1]; 308.15 K, 101.33 kPa) [mPa·s] | mass density ([1]; 308.15 K, 101.33 kPa) [kg/m3] | viscosity ([1]; 313.15 K, 101.33 kPa) [mPa·s] | mass density ([1]; 313.15 K, 101.33 kPa) [kg/m3] | refractive index [2] | viscosity ([3]; 293.15 K) [mPa·s] | mass density ([3]; 293.15 K) [kg/m3] | viscosity ([3]; 298.15 K) [mPa·s] | mass density ([3]; 298.15 K) [kg/m3] | viscosity ([3]; 303.15 K) [mPa·s] | mass density ([3]; 303.15 K) [kg/m3] | viscosity ([3]; 308.15 K) [mPa·s] | mass density ([3]; 308.15 K) [kg/m3] | viscosity ([3]; 313.15 K) [mPa·s] | further results
1 | CCCO [propan-1-ol] | 2.208 ± 0.017 | 803.56 ± 0.15 | 1.975 ± 0.016 | 799.58 ± 0.15 | 1.738 ± 0.014 | 795.59 ± 0.15 | 1.549 ± 0.012 | 791.48 ± 0.15 | 1.382 ± 0.011 | 787.36 ± 0.15 | 1.3833 ± 0.0004 | – | – | – | – | – | – | – | – | – | –
2 | CCCCO [butan-1-ol] + CCCC[NH3+].O=[N+]([O-])[O-] | – | – | – | – | – | – | – | – | – | – | – | 2.942 ± 0.023 | 809.76 ± 0.14 | 2.572 ± 0.02 | 805.94 ± 0.14 | 2.265 ± 0.018 | 802.11 ± 0.14 | 2.002 ± 0.016 | 798.18 ± 0.15 | 1.787 ± 0.014 | mass density ([3]; 313.15 K): 794.39 ± 0.15 kg/m3
3 | CCCCO [butan-1-ol] | 2.942 ± 0.023 | 809.76 ± 0.14 | 2.572 ± 0.02 | 805.96 ± 0.14 | 2.265 ± 0.018 | 802.11 ± 0.15 | 2.002 ± 0.016 | 798.18 ± 0.15 | 1.787 ± 0.014 | 794.39 ± 0.15 | 1.3972 ± 0.0004 | – | – | – | – | – | – | – | – | – | mass density ([1]; 298.15 K, 101 kPa): 805.94 ± 0.14 kg/m3
4 | CO [methanol] + CCCC[NH3+].O=[N+]([O-])[O-] | – | – | – | – | – | – | – | – | – | – | – | 0.588 ± 0.006 | 791.23 ± 0.15 | 0.552 ± 0.006 | 786.54 ± 0.15 | 0.516 ± 0.006 | 781.81 ± 0.15 | 0.486 ± 0.005 | 777.05 ± 0.15 | 0.461 ± 0.005 | mass density ([3]; 313.15 K): 772.25 ± 0.15 kg/m3
5 | CCO [ethanol] + CCCC[NH3+].O=[N+]([O-])[O-] | – | – | – | – | – | – | – | – | – | – | – | 1.218 ± 0.01 | 789.5 ± 0.15 | 1.134 ± 0.009 | 785.39 ± 0.15 | 1.01 ± 0.008 | 780.69 ± 0.15 | 0.907 ± 0.008 | 776.35 ± 0.15 | 0.836 ± 0.007 | mass density ([3]; 313.15 K): 772.11 ± 0.15 kg/m3
6 | CO [methanol] | 0.588 ± 0.006 | 791.23 ± 0.15 | 0.552 ± 0.006 | 786.54 ± 0.15 | 0.516 ± 0.006 | 781.81 ± 0.15 | 0.486 ± 0.005 | 777.05 ± 0.15 | 0.461 ± 0.005 | 772.25 ± 0.15 | 1.3264 ± 0.0004 | – | – | – | – | – | – | – | – | – | –
7 | CCO [ethanol] | 1.218 ± 0.01 | 789.5 ± 0.15 | 1.134 ± 0.009 | 785.39 ± 0.15 | 1.015 ± 0.008 | 780.69 ± 0.15 | 0.91 ± 0.008 | 776.35 ± 0.15 | 0.836 ± 0.007 | 772.11 ± 0.15 | 1.3594 ± 0.0004 | – | – | – | – | – | – | – | – | – | viscosity ([1]; 303.15 K, 101 kPa): 1.01 ± 0.008 mPa·s; viscosity ([1]; 308.15 K, 101 kPa): 0.907 ± 0.008 mPa·s
8 | CCCC[NH3+].O=[N+]([O-])[O-] [n-butylammonium nitrate] | 111.35 ± 4.1 | 1104.68 ± 6.6 | 89.95 ± 2.9 | 1101.52 ± 6.6 | 73.04 ± 2.1 | 1098.38 ± 6.5 | 60.25 ± 1.6 | 1095.26 ± 6.5 | 50.12 ± 1.3 | 1092.17 ± 6.5 | 1.4458 ± 0.0011 | – | – | – | – | – | – | – | – | – | –
9 | CCCO [propan-1-ol] + CCCC[NH3+].O=[N+]([O-])[O-] | – | – | – | – | – | – | – | – | – | – | – | 2.208 ± 0.017 | 803.56 ± 0.14 | 1.975 ± 0.016 | 799.58 ± 0.15 | 1.738 ± 0.014 | 795.59 ± 0.15 | 1.549 ± 0.012 | 791.48 ± 0.15 | 1.382 ± 0.011 | mass density ([3]; 313.15 K): 787.36 ± 0.15 kg/m3
